These results are taken from ChEMBL document CHEMBL1135401, “Pharmacophore mapping of a series of 2,4-diamino-5-deazapteridine inhibitors of Mycobacterium avium complex dihydrofolate reductase” (J Med Chem, 2002).

The target in experiment [1] is T1, Dihydrofolate reductase (Mycobacterium avium, UniProt O30463).
T1 sequence (O30463 whole entry): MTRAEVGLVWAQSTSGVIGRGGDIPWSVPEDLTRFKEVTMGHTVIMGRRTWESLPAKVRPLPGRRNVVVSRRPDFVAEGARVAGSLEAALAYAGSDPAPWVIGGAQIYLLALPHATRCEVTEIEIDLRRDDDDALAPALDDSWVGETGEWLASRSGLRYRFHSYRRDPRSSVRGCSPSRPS
Description: Antimycobacterial activity against Mycobacterium avium complex dihydrofolate reductase (MAC DHFR).

For experiment [2], the target named is T2, Dihydrofolate reductase (Homo sapiens, UniProt P00374).
T2 sequence (P00374 whole entry): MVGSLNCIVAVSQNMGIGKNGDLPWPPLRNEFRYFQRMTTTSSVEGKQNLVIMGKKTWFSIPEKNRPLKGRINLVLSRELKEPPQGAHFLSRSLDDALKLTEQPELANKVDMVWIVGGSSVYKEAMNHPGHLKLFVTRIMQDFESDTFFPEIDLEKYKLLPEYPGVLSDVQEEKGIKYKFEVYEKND
Description: Antimycobacterial activity against human dihydrofolate reductase (hDHFR).

With `Cc1c(CN(C)c2cccc3c2CCCC3)cnc2nc(N)nc(N)c12`, the IC50 in experiment [1] turned out to be 1.9 nM; in experiment [2], 710 nM. On to `Cc1ccc(NCc2cnc3nc(N)nc(N)c3c2C)cc1Br`, for which the half-maximal inhibitory concentration (IC50) was 0.6 nM in experiment [1] and 3.7 nM in experiment [2]. As for `COCc1c(CNc2cc(OC)c(OC)c(OC)c2)cnc2nc(N)nc(N)c12`, the IC50 stood at 550 nM in experiment [1] and 1300 nM in experiment [2].

As for `Nc1nc(N)c2cc(CNc3cccc4ccccc34)cnc2n1`, the IC50 in experiment [1] worked out at 86 nM; in experiment [2] it was 820 nM. `COCc1c(CNc2ccc(Cl)cc2)cnc2nc(N)nc(N)c12` returned an IC50 in experiment [2] of 2600 nM.

`Cc1c(CNc2c3ccccc3cc3ccccc23)cnc2nc(N)nc(N)c12` came in with a half-inhibitory concentration (IC50) in experiment [1] of 620 nM. For `COc1cc(Cl)c(C)cc1NCc1cnc2nc(N)nc(N)c2c1C`, the IC50 was found to be 0.94 nM in experiment [1] and 10 nM in experiment [2]. As to `CCc1c(CNc2cc(C)ccc2OC)cnc2nc(N)nc(N)c12`, the IC50 in experiment [1] is 3.1 nM; in experiment [2], 370 nM. With `CCCOc1ccc(OCCC)c(NCc2cnc3nc(N)nc(N)c3c2C)c1`, the IC50 in experiment [1] is 1 nM; in experiment [2] it was 7300 nM. `COc1cc(NCc2cnc3nc(N)nc(N)c3c2C)cc(OC)c1OC`: the half-inhibitory concentration (IC50) in experiment [1] was 0.82 nM; in experiment [2], 4.7 nM.

Consider `Cc1cccc(SCc2cnc3nc(N)nc(N)c3c2C)c1`, for which the results for the IC50 in experiment [1] and in experiment [2] were 16 nM and 850 nM, respectively.

Regarding `Cc1c(CNc2ccc(Cl)c(Cl)c2)cnc2nc(N)nc(N)c12`, the 50% inhibitory concentration (IC50) in experiment [1] stood at 0.92 nM; in experiment [2], 5 nM. Consider `Cc1ccc(F)c(NCc2cnc3nc(N)nc(N)c3c2C)c1`, for which the IC50 in experiment [1] came to 1.1 nM; in experiment [2], 250 nM. The corresponding values for `COc1ccc(C(F)(F)F)cc1NCc1cnc2nc(N)nc(N)c2c1C` are 0.66 nM and 2.7 nM. As for `COc1ccc(OC)c(SCc2cnc3nc(N)nc(N)c3c2C)c1`, the IC50 amounted to 23 nM in experiment [1] and 2500 nM in experiment [2]. On to `Cc1c(CNc2cccc(Cl)c2)cnc2nc(N)nc(N)c12`, for which the concentration for half-maximal inhibition (IC50) amounted to 0.82 nM in experiment [1] and 17 nM in experiment [2]. Consider `COc1ccc(OC)c(NCc2cnc3nc(N)nc(N)c3c2C)c1`, for which the IC50 in experiment [1] was 1.1 nM; in experiment [2], 1000 nM.

In the case of `COc1ccc(OC)c(CCc2cnc3nc(N)nc(N)c3c2C)c1`, the IC50 is 47 nM in experiment [1] and 2700 nM in experiment [2]. For `Cc1c(CNc2ccc3c4c(cccc24)-c2ccccc2-3)cnc2nc(N)nc(N)c12`, in that order: 1 nM and 6.2 nM. As for `COc1cc(SCc2cnc3nc(N)nc(N)c3c2C)cc(OC)c1OC`, the IC50 in experiment [1] stood at 4.5 nM; in experiment [2], 1200 nM. `COc1ccc(NCc2cnc3nc(N)nc(N)c3c2C)cc1OC`: the figures for the half-maximal inhibitory concentration (IC50) in experiment [1] and in experiment [2] were 0.7 nM and 5.1 nM, respectively.

For `Cc1cc(Br)cc(C)c1NCc1cnc2nc(N)nc(N)c2c1C`, the figures for the IC50 in experiment [1] and in experiment [2] were 5.3 nM and 1900 nM, respectively. As for `Cc1c(CNc2cc(C(F)(F)F)ccc2F)cnc2nc(N)nc(N)c12`, the IC50 in experiment [1] amounted to 0.86 nM; in experiment [2], 4.1 nM. In the case of `Cc1c(CNc2cc(F)ccc2F)cnc2nc(N)nc(N)c12`, the values for the IC50 in experiment [1] and in experiment [2] were 0.9 nM and 69 nM, respectively. Take `COc1cccc(SCc2cnc3nc(N)nc(N)c3c2C)c1`: the IC50 in experiment [1] came to 2.7 nM; in experiment [2], 500 nM. For `Cc1cc(C)c(NCc2cnc3nc(N)nc(N)c3c2C)c(Cl)c1`, in that order: 3.8 nM and 850 nM. As to `COc1cc(NCc2cnc3nc(N)nc(N)c3c2C)cc(C(F)(F)F)c1`, the IC50 is 0.93 nM in experiment [1] and 5.5 nM in experiment [2]. In the case of `COc1ccc(C)cc1NCc1cnc2nc(N)nc(N)c2c1C`, the IC50 was determined as 0.86 nM in experiment [1] and 300 nM in experiment [2]. Turning to `Cc1c(CNc2cc(C(F)(F)F)ccc2Br)cnc2nc(N)nc(N)c12`, the IC50 worked out at 0.82 nM in experiment [1] and 3.2 nM in experiment [2]. Turning to `Cc1c(CNc2ccc(Cl)c3ccccc23)cnc2nc(N)nc(N)c12`, the values for the IC50 in experiment [1] and in experiment [2] were 0.43 nM and 2 nM, respectively. For `CCc1c(CNc2cc(C(F)(F)F)ccc2OC)cnc2nc(N)nc(N)c12`, in that order: 0.88 nM and 3.6 nM.

With `COCc1c(CNc2cc(OC)ccc2OC)cnc2nc(N)nc(N)c12`, the IC50 amounted to 2400 nM in experiment [1] and 31000 nM in experiment [2]. Regarding `Cc1c(CNC2CCCc3ccccc32)cnc2nc(N)nc(N)c12` (stereo not given), the half-inhibitory concentration (IC50) came to 280 nM in experiment [1] and 3400 nM in experiment [2]. In the case of `Cc1c(CNc2ccccc2Cl)cnc2nc(N)nc(N)c12`, the IC50 came to 0.91 nM in experiment [1] and 120 nM in experiment [2]. Regarding `CCOc1ccc(NCc2cnc3nc(N)nc(N)c3c2C)cc1OC`, the IC50 stood at 1.1 nM in experiment [1] and 18 nM in experiment [2]. Turning to `COc1ccc(C)c(NCc2cnc3nc(N)nc(N)c3c2C)c1`, the IC50 in experiment [1] came to 0.4 nM; in experiment [2] it was 150 nM. For `Cc1cc(Br)ccc1NCc1cnc2nc(N)nc(N)c2c1C`, the IC50 is 0.85 nM in experiment [1] and 5.9 nM in experiment [2].

Turning to `Cc1c(CNc2ccccc2OC(F)F)cnc2nc(N)nc(N)c12`, the IC50 in experiment [1] was determined as 0.87 nM; in experiment [2], 277 nM. For `Cc1ccc(C)c(NCc2cnc3nc(N)nc(N)c3c2C)c1`, in that order: 0.92 nM and 57 nM. For the molecule `Cc1c(CNc2ccc3c(c2)Cc2ccccc2-3)cnc2nc(N)nc(N)c12`, the IC50 in experiment [1] was determined as 0.86 nM; in experiment [2], 6.7 nM.

On to `COc1ccc(NCc2cnc3nc(N)nc(N)c3c2C)cc1F`, for which the IC50 in experiment [1] is 0.91 nM; in experiment [2], 14 nM.

With `CCOc1ccc(OCC)c(N(C)Cc2cnc3nc(N)nc(N)c3c2C)c1`, the IC50 came to 1.4 nM in experiment [1] and 1000 nM in experiment [2].

For the molecule `Cc1c(CSc2ccc(Cl)cc2)cnc2nc(N)nc(N)c12`, the results for the IC50 in experiment [1] and in experiment [2] were 3.6 nM and 590 nM, respectively. Take `Cc1cc(NCc2cnc3nc(N)nc(N)c3c2C)ccc1Br`: the figures for the IC50 in experiment [1] and in experiment [2] were 0.87 nM and 6.1 nM, respectively. Take `Cc1c(CNc2cc(Br)ccc2Br)cnc2nc(N)nc(N)c12`: the IC50 in experiment [1] came out at 0.7 nM; in experiment [2], 4.6 nM.

Turning to `COc1cc(CCc2cnc3nc(N)nc(N)c3c2C)cc(OC)c1`, the IC50 turned out to be 1.5 nM in experiment [1] and 990 nM in experiment [2]. For the molecule `COc1cc(OC)cc(N(C)Cc2cnc3nc(N)nc(N)c3c2C)c1`, the 50% inhibitory concentration (IC50) amounted to 0.73 nM in experiment [1] and 8.7 nM in experiment [2].

As for `Cc1ccc(NCc2cnc3nc(N)nc(N)c3c2C)cc1Cl`, the IC50 in experiment [1] came out at 0.9 nM; in experiment [2] it was 6.7 nM. Regarding `Cc1c(CNc2cc(Cl)ccc2Cl)cnc2nc(N)nc(N)c12`, the concentration for half-maximal inhibition (IC50) came to 0.89 nM in experiment [1] and 8 nM in experiment [2].

Regarding `CCc1c(CNc2cc(OC)ccc2OC)cnc2nc(N)nc(N)c12`, the IC50 in experiment [1] is 2.8 nM; in experiment [2], 1000 nM. On to `COc1ccc(SCc2cnc3nc(N)nc(N)c3c2C)cc1OC`, for which the half-inhibitory concentration (IC50) in experiment [1] turned out to be 1.5 nM; in experiment [2], 440 nM. Consider `Cc1ccc(Cl)c(NCc2cnc3nc(N)nc(N)c3c2C)c1`, for which the IC50 in experiment [1] was 0.95 nM; in experiment [2], 44 nM. Regarding `COc1cc(NCc2cnc3nc(N)nc(N)c3c2)cc(OC)c1OC`, the half-inhibitory concentration (IC50) stood at 240 nM in experiment [1] and 3900 nM in experiment [2]. For the molecule `COc1cc(-c2ccccc2)ccc1NCc1cnc2nc(N)nc(N)c2c1C`, the 50% inhibitory concentration (IC50) in experiment [1] is 0.91 nM; in experiment [2], 68 nM. The corresponding values for `Cc1c(CSc2cccc(Cl)c2)cnc2nc(N)nc(N)c12` are 3.9 nM and 420 nM.

Take `COc1ccc(C(F)(F)F)cc1N(C)Cc1cnc2nc(N)nc(N)c2c1C`: the IC50 in experiment [1] was 1.2 nM; in experiment [2] it was 36 nM.

Take `Cc1c(CNc2cccc3c2CCCC3)cnc2nc(N)nc(N)c12`: the IC50 is 0.93 nM in experiment [1] and 142 nM in experiment [2]. `Cc1c(CNc2ccc3ccc4cccc5ccc2c3c45)cnc2nc(N)nc(N)c12`: the IC50 in experiment [1] worked out at 0.88 nM; in experiment [2] it was 3.8 nM. In the case of `COCc1c(CNc2ccc(OC)c(OC)c2)cnc2nc(N)nc(N)c12`, the IC50 in experiment [1] is 1200 nM; in experiment [2], 6100 nM. Turning to `Cc1c(Cl)cccc1NCc1cnc2nc(N)nc(N)c2c1C`, the values for the half-maximal inhibitory concentration (IC50) in experiment [1] and in experiment [2] were 0.82 nM and 5.2 nM, respectively. On to `Cc1c(CNc2cnc3ccccc3c2)cnc2nc(N)nc(N)c12`, for which the IC50 in experiment [1] is 1.2 nM; in experiment [2], 12 nM.

On to `Cc1cc(NCc2cnc3nc(N)nc(N)c3c2C)c(Cl)cc1F`, for which the figures for the 50% inhibitory concentration (IC50) in experiment [1] and in experiment [2] were 0.78 nM and 33 nM, respectively. With `Cc1c(CNc2cccc3cnccc23)cnc2nc(N)nc(N)c12`, the IC50 came to 0.87 nM in experiment [1] and 4 nM in experiment [2].

As to `Cc1ccc(Cl)cc1NCc1cnc2nc(N)nc(N)c2c1C`, the half-inhibitory concentration (IC50) in experiment [1] is 0.79 nM; in experiment [2] it was 6.1 nM.

In the case of `Cc1c(CNc2cccc3ncccc23)cnc2nc(N)nc(N)c12`, the concentration for half-maximal inhibition (IC50) in experiment [1] was 0.98 nM; in experiment [2], 4.3 nM. `CCOc1ccc(OCC)c(NCc2cnc3nc(N)nc(N)c3c2C)c1` came in with an IC50 in experiment [2] of 2300 nM. Take `Nc1nc(N)c2cc(CNc3ccc(Cl)cc3)cnc2n1`: the figures for the half-maximal inhibitory concentration (IC50) in experiment [1] and in experiment [2] were 73 nM and 670 nM, respectively. For the molecule `Cc1ccc(F)cc1NCc1cnc2nc(N)nc(N)c2c1C`, the 50% inhibitory concentration (IC50) was 0.85 nM in experiment [1] and 19 nM in experiment [2].

As for `Cc1c(CSc2cccc3ccccc23)cnc2nc(N)nc(N)c12`, the IC50 in experiment [1] is 4.6 nM; in experiment [2] it was 440 nM. For `Cc1c(CNc2ccc3ncccc3c2)cnc2nc(N)nc(N)c12`, in that order: 0.95 nM and 7.1 nM. For `Cc1cc(Cl)ccc1NCc1cnc2nc(N)nc(N)c2c1C`, the IC50 in experiment [2] amounted to 2.8 nM. On to `Cc1c(CNC2c3ccccc3-c3ccccc32)cnc2nc(N)nc(N)c12`, for which the results for the 50% inhibitory concentration (IC50) in experiment [1] and in experiment [2] were 320 nM and 5300 nM, respectively.
